From paper PMC5149032, “Secondary Metabolites and Biological Activities of Talaromyces sp. LGT-2, an Endophytic Fungus from Tripterygium Wilfordii” (Iranian Journal of Pharmaceutical Research : IJPR, 2016)

Target: monoamine oxidase (MAO), isoform not stated
Experiment: MAO inhibition assay (procedure cited to earlier paper; enzyme source not given)
Assay type: biochemical

- IC50: 61 µM
Compound: O=CN/C=C\c1ccc(O)cc1 [compound 11, (Z)-N-(4-hydroxystyryl)formamide]
